Results as given in ChEMBL document CHEMBL3991601, “The target landscape of clinical kinase drugs” (Science, 2017).
Active and inactive are the calls of the source. Rule as the data show it, for most assays here: actives have a measured Kd and inactives only a lower limit.

Tests used:
Ephrin type-A receptor 5 = Ephrin type-A receptor 5 (Homo sapiens, UniProt P54756)
[1] = molecular target: T1, Mitogen-activated protein kinase kinase kinase 3 (Homo sapiens, UniProt Q99759)
T1 sequence (Q99759 whole entry): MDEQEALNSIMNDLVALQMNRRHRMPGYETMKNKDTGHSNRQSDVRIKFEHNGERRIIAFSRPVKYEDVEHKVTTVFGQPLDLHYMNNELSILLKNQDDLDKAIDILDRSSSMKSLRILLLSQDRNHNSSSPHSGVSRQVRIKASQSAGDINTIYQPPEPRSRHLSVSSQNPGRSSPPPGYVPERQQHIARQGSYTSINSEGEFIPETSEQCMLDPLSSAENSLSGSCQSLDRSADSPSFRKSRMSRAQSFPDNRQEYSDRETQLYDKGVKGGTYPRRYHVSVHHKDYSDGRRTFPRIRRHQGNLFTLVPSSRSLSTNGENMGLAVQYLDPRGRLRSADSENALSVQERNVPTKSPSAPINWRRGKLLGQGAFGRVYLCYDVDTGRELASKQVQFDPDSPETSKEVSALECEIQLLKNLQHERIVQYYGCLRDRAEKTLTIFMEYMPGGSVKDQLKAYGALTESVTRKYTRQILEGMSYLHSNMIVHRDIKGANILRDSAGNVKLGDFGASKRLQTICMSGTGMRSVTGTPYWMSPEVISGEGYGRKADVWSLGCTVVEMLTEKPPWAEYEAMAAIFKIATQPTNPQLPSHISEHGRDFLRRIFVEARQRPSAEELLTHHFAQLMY

[2] = molecular target: Dual specificity mitogen-activated protein kinase kinase 2 (Homo sapiens, UniProt P36507)
Sequence of Dual specificity mitogen-activated protein kinase kinase 2 (P36507 whole entry): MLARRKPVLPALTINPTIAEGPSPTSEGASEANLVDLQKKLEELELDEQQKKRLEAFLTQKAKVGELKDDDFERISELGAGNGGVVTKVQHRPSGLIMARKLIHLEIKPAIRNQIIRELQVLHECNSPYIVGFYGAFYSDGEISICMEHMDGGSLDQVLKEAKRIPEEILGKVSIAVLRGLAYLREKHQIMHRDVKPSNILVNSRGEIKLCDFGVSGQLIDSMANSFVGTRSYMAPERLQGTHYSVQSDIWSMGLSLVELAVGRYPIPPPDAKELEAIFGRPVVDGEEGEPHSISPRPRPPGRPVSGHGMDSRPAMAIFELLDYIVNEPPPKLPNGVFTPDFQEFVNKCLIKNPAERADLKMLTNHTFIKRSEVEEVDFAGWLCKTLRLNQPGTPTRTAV

[3] = molecular target: Dual specificity testis-specific protein kinase 1 (Homo sapiens, UniProt Q15569)
[4] = molecular target: BMP-2-inducible protein kinase (Homo sapiens, UniProt Q9NSY1)
Sequence of BMP-2-inducible protein kinase (Q9NSY1 whole entry): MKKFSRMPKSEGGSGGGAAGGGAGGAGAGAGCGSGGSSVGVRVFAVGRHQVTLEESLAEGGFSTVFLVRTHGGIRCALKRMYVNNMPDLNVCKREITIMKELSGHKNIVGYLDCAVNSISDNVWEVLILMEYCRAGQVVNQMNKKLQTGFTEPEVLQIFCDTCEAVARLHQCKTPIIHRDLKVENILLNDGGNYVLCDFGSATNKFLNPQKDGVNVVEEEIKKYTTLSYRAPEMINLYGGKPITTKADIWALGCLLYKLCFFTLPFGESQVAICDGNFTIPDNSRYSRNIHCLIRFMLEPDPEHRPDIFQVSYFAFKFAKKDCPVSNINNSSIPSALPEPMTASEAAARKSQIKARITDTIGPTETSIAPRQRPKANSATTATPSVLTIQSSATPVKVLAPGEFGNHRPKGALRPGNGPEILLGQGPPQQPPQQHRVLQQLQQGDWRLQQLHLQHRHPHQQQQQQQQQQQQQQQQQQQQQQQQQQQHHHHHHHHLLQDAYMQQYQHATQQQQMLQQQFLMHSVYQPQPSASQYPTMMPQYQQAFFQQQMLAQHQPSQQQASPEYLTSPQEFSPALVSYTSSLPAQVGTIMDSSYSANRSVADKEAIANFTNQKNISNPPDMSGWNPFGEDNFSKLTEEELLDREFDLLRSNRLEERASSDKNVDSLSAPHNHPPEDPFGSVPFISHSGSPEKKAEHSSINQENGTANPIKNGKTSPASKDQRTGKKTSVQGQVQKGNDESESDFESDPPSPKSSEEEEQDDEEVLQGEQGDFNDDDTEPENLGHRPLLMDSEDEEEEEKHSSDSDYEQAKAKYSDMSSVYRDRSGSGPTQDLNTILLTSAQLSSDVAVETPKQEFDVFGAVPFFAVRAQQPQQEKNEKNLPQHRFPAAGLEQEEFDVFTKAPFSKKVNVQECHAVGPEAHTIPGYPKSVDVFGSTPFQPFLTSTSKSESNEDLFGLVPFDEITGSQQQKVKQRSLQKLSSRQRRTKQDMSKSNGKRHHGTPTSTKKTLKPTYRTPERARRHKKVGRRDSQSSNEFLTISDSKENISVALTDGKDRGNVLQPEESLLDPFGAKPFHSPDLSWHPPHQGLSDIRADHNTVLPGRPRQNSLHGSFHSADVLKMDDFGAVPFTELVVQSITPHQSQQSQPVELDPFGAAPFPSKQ

[5] = molecular target: Epidermal growth factor receptor (Homo sapiens, UniProt P00533)
Sequence of Epidermal growth factor receptor (P00533 whole entry): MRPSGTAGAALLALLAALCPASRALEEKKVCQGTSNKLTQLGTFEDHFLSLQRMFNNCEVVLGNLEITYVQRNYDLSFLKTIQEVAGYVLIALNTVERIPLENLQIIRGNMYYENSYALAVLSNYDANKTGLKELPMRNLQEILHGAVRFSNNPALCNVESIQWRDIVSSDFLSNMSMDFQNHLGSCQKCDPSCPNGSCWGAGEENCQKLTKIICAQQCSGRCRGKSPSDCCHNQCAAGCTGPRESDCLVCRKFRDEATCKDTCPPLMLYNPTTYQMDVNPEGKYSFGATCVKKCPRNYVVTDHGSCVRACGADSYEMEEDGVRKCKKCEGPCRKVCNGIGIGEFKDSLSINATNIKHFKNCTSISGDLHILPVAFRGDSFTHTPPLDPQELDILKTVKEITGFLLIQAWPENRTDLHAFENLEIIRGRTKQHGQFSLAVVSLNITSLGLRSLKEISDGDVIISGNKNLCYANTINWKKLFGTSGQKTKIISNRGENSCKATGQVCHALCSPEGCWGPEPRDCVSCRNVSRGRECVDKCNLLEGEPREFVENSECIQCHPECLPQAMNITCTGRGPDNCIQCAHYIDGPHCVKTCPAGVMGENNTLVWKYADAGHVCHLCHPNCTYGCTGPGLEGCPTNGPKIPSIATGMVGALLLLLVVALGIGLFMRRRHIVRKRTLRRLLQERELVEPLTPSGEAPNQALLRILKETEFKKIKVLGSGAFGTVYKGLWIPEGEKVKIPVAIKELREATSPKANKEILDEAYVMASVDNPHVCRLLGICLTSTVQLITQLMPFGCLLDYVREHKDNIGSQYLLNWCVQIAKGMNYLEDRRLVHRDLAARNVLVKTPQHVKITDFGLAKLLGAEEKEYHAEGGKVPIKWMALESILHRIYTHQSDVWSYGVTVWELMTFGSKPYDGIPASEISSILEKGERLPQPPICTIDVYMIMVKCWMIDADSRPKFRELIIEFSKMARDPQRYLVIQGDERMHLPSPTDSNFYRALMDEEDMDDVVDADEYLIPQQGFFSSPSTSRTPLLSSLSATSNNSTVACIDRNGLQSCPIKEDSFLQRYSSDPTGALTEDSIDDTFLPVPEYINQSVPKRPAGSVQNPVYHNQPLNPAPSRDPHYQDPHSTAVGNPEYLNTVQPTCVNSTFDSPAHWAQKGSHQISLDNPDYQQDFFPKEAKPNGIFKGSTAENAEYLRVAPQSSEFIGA

[6] = molecular target: Interleukin-1 receptor-associated kinase 1 (Homo sapiens, UniProt P51617)
[7] = molecular target: Serine/threonine-protein kinase PAK 2 (Homo sapiens, UniProt Q13177)
[8] = molecular target: T2, Receptor-type tyrosine-protein kinase FLT3 (Homo sapiens, UniProt P36888)
T2 sequence (P36888 whole entry): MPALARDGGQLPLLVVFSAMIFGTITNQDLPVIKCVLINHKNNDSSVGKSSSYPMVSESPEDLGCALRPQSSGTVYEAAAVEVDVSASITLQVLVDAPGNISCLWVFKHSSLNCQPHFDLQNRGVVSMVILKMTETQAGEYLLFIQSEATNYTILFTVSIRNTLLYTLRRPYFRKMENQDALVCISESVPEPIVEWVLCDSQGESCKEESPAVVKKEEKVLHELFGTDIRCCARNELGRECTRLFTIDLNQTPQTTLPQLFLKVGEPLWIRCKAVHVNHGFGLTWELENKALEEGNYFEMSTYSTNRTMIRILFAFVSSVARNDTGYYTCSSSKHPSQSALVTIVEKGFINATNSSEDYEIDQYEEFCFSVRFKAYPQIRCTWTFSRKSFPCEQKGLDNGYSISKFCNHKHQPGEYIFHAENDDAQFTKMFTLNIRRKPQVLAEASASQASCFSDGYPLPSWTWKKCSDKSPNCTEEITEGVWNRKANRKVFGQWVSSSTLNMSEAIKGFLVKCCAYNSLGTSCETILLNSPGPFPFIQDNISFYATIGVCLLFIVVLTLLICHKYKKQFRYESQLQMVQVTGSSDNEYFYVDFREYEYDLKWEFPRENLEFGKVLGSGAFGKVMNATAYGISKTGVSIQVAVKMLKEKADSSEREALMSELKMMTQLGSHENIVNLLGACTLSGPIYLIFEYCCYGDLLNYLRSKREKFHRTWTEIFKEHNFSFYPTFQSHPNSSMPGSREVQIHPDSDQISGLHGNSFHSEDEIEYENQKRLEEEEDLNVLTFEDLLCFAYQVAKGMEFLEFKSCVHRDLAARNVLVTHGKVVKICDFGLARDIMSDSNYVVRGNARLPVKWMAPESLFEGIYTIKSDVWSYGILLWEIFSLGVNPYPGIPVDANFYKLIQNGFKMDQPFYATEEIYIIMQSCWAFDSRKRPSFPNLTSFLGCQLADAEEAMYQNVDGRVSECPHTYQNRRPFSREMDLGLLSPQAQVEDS

[9] = molecular target: Tyrosine-protein kinase JAK1 (Homo sapiens, UniProt P23458)
Sequence of Tyrosine-protein kinase JAK1 (P23458 whole entry): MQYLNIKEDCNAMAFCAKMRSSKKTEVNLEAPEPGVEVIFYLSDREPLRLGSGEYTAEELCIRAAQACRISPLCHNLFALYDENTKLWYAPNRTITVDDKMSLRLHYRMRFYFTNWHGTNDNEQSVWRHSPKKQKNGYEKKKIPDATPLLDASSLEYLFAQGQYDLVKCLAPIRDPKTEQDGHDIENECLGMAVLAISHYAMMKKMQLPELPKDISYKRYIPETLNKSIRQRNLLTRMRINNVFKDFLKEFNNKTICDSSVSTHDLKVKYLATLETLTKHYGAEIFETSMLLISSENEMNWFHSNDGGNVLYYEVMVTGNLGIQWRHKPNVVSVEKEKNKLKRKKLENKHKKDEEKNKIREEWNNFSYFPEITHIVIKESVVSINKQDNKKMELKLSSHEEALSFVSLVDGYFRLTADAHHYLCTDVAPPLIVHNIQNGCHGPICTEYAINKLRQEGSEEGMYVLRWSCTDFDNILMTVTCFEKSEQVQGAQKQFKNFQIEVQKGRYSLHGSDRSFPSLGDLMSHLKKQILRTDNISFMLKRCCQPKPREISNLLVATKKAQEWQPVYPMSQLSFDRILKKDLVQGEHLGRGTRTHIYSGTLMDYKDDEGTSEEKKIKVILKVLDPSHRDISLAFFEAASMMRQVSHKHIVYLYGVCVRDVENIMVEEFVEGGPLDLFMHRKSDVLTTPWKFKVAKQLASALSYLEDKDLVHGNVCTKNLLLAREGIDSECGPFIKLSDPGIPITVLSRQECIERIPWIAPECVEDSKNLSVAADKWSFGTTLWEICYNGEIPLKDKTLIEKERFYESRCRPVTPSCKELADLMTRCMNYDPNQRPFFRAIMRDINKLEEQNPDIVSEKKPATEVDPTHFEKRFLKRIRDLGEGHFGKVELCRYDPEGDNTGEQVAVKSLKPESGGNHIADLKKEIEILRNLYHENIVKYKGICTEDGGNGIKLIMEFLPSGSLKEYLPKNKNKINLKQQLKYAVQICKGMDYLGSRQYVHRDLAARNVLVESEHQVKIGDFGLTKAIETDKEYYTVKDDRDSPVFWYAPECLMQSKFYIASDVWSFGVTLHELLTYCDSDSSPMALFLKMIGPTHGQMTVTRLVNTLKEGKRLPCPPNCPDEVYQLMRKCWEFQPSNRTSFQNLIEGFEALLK

[10] = molecular target: T3, ATP-dependent RNA helicase DDX1 (Homo sapiens, UniProt Q92499)
T3 sequence (Q92499 whole entry): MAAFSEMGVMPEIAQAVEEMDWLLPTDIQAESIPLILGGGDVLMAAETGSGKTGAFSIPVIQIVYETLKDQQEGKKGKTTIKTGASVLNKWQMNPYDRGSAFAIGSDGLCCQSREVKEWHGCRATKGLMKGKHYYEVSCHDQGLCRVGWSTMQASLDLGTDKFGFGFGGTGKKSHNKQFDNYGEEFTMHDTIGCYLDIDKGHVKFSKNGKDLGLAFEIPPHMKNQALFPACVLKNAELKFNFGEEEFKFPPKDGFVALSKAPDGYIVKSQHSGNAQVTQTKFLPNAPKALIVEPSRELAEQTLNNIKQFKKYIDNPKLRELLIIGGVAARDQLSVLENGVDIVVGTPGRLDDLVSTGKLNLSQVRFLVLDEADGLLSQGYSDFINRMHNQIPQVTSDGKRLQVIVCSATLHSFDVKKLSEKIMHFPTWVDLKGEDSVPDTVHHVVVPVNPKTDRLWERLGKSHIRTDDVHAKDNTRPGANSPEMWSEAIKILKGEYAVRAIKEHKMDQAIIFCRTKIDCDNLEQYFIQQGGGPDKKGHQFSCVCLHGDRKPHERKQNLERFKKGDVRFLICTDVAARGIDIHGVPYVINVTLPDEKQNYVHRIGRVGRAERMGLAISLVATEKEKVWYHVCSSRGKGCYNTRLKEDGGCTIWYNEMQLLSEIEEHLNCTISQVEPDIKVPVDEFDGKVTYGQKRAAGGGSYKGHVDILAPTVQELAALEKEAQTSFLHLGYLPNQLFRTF

Measured: Kd
Also: in the data inactive means no Kd found up to 30 µM.

Sequence of Ephrin type-A receptor 5 (P54756 whole entry): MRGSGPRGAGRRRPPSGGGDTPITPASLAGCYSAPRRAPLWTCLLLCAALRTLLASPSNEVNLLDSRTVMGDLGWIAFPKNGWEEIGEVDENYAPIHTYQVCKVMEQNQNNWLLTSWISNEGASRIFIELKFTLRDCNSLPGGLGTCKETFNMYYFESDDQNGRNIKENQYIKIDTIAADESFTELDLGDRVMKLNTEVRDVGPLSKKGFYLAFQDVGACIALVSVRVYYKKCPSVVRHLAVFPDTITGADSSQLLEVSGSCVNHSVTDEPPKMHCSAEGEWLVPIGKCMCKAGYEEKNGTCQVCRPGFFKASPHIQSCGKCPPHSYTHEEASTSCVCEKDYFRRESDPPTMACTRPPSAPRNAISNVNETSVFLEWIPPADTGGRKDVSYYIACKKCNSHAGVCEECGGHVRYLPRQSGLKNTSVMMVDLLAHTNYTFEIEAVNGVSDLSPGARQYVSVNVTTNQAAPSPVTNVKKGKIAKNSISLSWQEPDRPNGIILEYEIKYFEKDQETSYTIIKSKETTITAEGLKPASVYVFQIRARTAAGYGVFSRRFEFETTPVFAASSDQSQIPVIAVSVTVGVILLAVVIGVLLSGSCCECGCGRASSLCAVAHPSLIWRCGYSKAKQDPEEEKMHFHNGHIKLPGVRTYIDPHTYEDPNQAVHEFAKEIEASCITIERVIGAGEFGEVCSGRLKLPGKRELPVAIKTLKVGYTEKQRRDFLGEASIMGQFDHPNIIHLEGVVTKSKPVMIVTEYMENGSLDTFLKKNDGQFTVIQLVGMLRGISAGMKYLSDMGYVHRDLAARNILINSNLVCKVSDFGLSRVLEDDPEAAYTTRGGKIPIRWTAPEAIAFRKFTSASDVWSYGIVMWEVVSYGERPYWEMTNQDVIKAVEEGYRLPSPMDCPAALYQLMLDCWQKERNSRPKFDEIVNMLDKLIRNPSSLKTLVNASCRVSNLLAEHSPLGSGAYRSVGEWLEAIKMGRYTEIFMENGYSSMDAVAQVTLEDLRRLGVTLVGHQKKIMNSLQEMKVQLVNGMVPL

FC(F)(F)c1ccc(/C=C/c2nc(COc3ccc(CCCCn4ccnn4)cc3)co2)cc1 [MUBRITINIB]
inactive: Ephrin type-A receptor 5 > 30 µM | [1] > 30 µM | [2] > 30 µM | [3] > 30 µM | [4] > 30 µM | [5] > 30 µM | [6] > 30 µM | [7] > 30 µM | [8] > 30 µM | [9] > 30 µM | [10] > 30 µM
